Row | SMILES | melting point [°C]
1 | Cc1cc(NC(=O)CN2CCN(c3ccccc3C#N)CC2)ccc1Br | 143 to 145
2 | c1ccc(CN2CCN(CCCCc3c[nH]c4ccc(-n5cnnc5)cc34)CC2)nc1 | 115 to 118
3 | N#Cc1c(O)csc1N | 300
4 | O=C(O)c1nc(-c2ccc(Cl)cc2Cl)n(-c2ccc(Cl)cc2)c1Br | 205 to 207
5 | O=C(O)C1c2ccccc2COc2ccc(I)cc21 (stereo not drawn) | 191 to 192
6 | S=C(NCCC1=CCCCC1)Nc1ccccn1 | 153 to 155
7 | CCc1ccc(CCc2ccc(-c3ccc(OC(F)F)cc3)cc2)cc1 | 131
8 | CCCCCN1C(=O)C2(COc3cc(F)c(F)cc32)c2ccccc21 (stereo not drawn) | 48 to 50
9 | O=c1[nH]c(=O)n2c3c1cnn3C(c1cccnc1)=CC2 | 292 to 295
10 | CCOC(C#CCN1CCC(NC(=O)c2ccccc2)CC1)OCC | 130
11 | CC1(CN2CCC(Oc3ccc(C(F)(F)F)cc3)CC2)Cn2cc([N+](=O)[O-])nc2O1 (stereo not drawn) | 113 to 114
12 | Nc1c(F)c(-c2ccc(C(F)(F)F)nc2)nc(C=O)c1Cl | 147 to 149
13 | CCCCc1nn(-c2ccccc2C(F)(F)F)c(=O)n1Cc1ccc(-c2ccccc2S(N)(=O)=O)cc1 | 74 to 76
14 | COC(=O)CCCCCCn1[nH]c(=O)n(C)c1=O | 80 to 81
15 | CCOc1nc(N)n2nc(-c3ccco3)nc2n1 | 211 to 213
16 | CCc1nc2c(cnn2CC)c(NC2CCOCC2)c1CNC(=O)c1cccc(C(=O)NCc2ccc(F)c(-c3cccc(CN(C)CCN(C)C)c3)c2)c1 | 126 to 129
17 | Cc1ccccc1-n1c(CF)nc2ccc(N)cc2c1=O | 195 to 196
18 | CN(C)C1CCc2[nH]c3ccc(CO)cc3c2C1 (stereo not drawn) | 195 to 197
19 | COc1cc(C=C(Br)Br)cc(OC)c1OCc1ccccc1 | 76 to 77
20 | CCN1C(=O)C(C)(C)C(=O)N(C)c2cc(CN(CCn3ccc4oc(C)cc4c3=O)Cc3cnccn3)ccc21 | 129 to 131
21 | CCCCc1nnc(SC)n1Cc1ccc(-c2ccccc2-c2nnn[nH]2)cc1 | 100 to 102
22 | CC1(N)CCN(c2c(F)c(F)c3c(=O)c(C(=O)O)cn(C4CC4)c3c2F)C1 (stereo not drawn) | 280 to 282
23 | CCCCCCCNC(=O)N(C)c1cccc(-c2ccc(CC(Nc3ccccc3C(=O)c3ccccc3)C(=O)O)cc2)c1 (stereo not drawn) | 105

Row | SMILES | melting point [°C]
24 | O=Cc1ccccc1P(=O)(c1ccccc1)c1ccccc1 | 131 to 134
25 | CN1C(=O)[C@H](NC(=O)CCc2ccc(Cl)cc2)N=C(c2ccccc2)c2ccccc21 | 203 to 205
26 | N#Cc1cccnc1N1CCN(CC(=O)Nc2cc(F)cc(C(F)(F)F)c2)CC1 | 108 to 110
27 | C[C@H](CO)CN1CCC(c2noc3cc(F)ccc23)CC1 | 119 to 121
28 | Cc1c(C)c2c(c(C)c1NC(=O)CCC(F)(F)F)C(c1ccc(C(C)C)cc1)CO2 (stereo not drawn) | 206 to 207
29 | CC(C)N1Cc2ccccc2N(CCN2CCC(c3c[nH]c4cc(F)ccc34)C2)S1(=O)=O (stereo not drawn) | 50.8 to 54.4
30 | Cc1c(C)c2c(c(C)c1NC(=O)CC(C)(C)C)OC(C)(C)C2c1ccc(C(C)C)cc1 (stereo not drawn) | 128 to 129
31 | Cc1c(C)c2c(c(C)c1N)CC(C)(CN(C)C)O2 (stereo not drawn) | 66 to 67
32 | O=C(NCc1ccc(C(F)(F)F)cc1)c1ccnc(NC(=O)c2ccccc2)c1 | 165 to 168
33 | CC(C)(C)OC(=O)N1CCN(C(=O)OC(C)(C)C)C(C(=O)O)C1 (stereo not drawn) | 231 to 233
34 | C=CCCOc1ccc2c(c1)C(=O)c1cc3ccccc3cc1C2=O | 149
35 | O=C(NCc1ccccc1)C12CC3CC(CC(C3)C1)C2 | 170 to 172
36 | CCCCCCCCCCCCCCOc1ccc(CN(C(=O)NC)c2cccc(COC(=O)NC)c2)cc1 | 107 to 109
37 | Cc1ccc(S(=O)(=O)n2cc(C(C)O)c3ccc(C(=O)Nc4c(Cl)cncc4Cl)cc32)cc1 (stereo not drawn) | 206 to 211
38 | C=CCc1cccc2c(=O)cc(-c3ccc(F)cc3)oc12 | 98 to 100
39 | O=C(Sc1ccc(O)cc1)c1ccc(CSc2ccc(O)cc2)cc1 | 202 to 209
40 | CCOC(=O)C(CC)C(O)(c1ccccc1)c1ccc(O)cc1 (stereo not drawn) | 46 to 53
41 | O=c1nc(N2CCN(c3ccc(Cl)cc3)CC2)sc2c([N+](=O)[O-])cc([N+](=O)[O-])cc12 | 178 to 180
42 | Cc1ccc(SN(CC(=O)OCc2ccccc2)CP(=O)(Oc2ccccc2)Oc2ccccc2)cc1 | 108 to 111
43 | CC(C)OC(=O)Nc1ccc(N)c([N+](=O)[O-])c1 | 173 to 175
44 | CC(Cc1ccc(OCC(N)=O)cc1)NCC(O)c1ccccc1 (stereo not drawn) | 158 to 162
45 | CN=C(NC#N)C1=CC2(CCCCC2)Oc2ccc([N+](=O)[O-])cc21 | 244 to 245
46 | CCOC(=O)c1sc(SC(C)C)c2c1CCC(Br)C2=O (stereo not drawn) | 107 to 108

Row | SMILES | melting point [°C]
47 | CN1CCN(Cc2ccc(-c3cc4ncc(C#N)c(Nc5ccc(Oc6ccccc6)cc5)c4s3)cc2)CC1 | 199 to 201
48 | O=C(NC[C@@H]1CN2C(=O)C[C@H]2O1)c1cc(F)ccc1F (racemic) | 88.8 to 90.7
49 | CCCCCCCCCCCCC(C)CNc1cc(C)c([N+](=O)[O-])cc1C(=O)O (stereo not drawn) | 98 to 100
50 | OCC#Cc1cnc(Cl)nc1NC1CCCC1 | 162 to 163
51 | Brc1cccc(Sc2ccc3ccccc3c2)c1 | 68 to 70
52 | COC(=O)c1cn(CC(F)(F)F)c2c(C)cc(F)cc2c1=O | 168 to 171
53 | Cn1c(S(=O)(=O)CCCl)nnc1S(=O)(=O)CCCl | 156
54 | Cc1c(Br)nc(Br)c(=O)n1C | 119 to 120
55 | Cc1ccc2nc(-c3ccc(Cl)cc3)cc(Cl)c2c1 | 136 to 138
56 | CSc1ccc(COc2cccc(C(=O)Nc3ccc(C#N)cn3)c2)cc1 | 146 to 147
57 | COC(=O)Cc1ccc(OCc2ccc3ccccc3n2)c(Br)c1 | 90
58 | COC(=O)c1c([N+](=O)[O-])cccc1S(N)(=O)=O | 227 to 229
59 | CCOC(=O)c1cn(CC(F)(F)F)c2c(C)cc(F)cc2c1=O | 154 to 158
60 | O=C(O)CCCC/C=C(\c1ccc(C2=N[C@H](C(=O)NCCCCC3CCCCC3)CO2)cc1)c1cccnc1 | 61
61 | NC(=O)c1ccc(CN2CCN(C(=O)c3cc(C(F)(F)F)cc(C(F)(F)F)c3)[C@H](Cc3c[nH]c4ccccc34)C2)cc1 | 120 to 126
62 | COC(=O)C[C@H]1[C@H](NC(=O)OC(C)(C)C)CCN1C(=O)OCc1ccccc1 (relative stereo) | 73 to 74
63 | CC(C)CC(=O)Nc1cccc(-c2ccnc3c(-c4cccc(CN(C)C)c4)cnn23)c1 | 179 to 182
64 | NCC1Cc2cc(Cl)cc(-c3cccnc3)c2O1 (stereo not drawn) | > 250
65 | CCCCC(Cn1cncn1)(C(N)=O)c1ccc(Cl)cc1 (stereo not drawn) | 197 to 199
66 | CC(=O)Nc1cc(SCC(C)C)ccc1[N+](=O)[O-] | 53 to 55
67 | O=C(c1ccc(-c2ccccn2)s1)N1CCCCc2sccc21 | 150 to 154

Now from value to molecule:

Row | melting point [°C] | SMILES
68 | 231 to 235 | O=C(c1ccc(F)cc1)C1CCN(CCn2c(=O)[nH]c3sccc3c2=O)CC1
69 | 195 to 197 | COc1cc(N2CCN(C)CC2)c2oc(C(=O)Nc3ccc(N4CCN(C(=O)CCO)CC4)cc3)cc(=O)c2c1
70 | 220 to 224 | COC(=O)Nc1nc2ccc(Oc3ccncc3)cc2[nH]1
71 | 109 to 111 | COc1ccc(C(=O)c2c(C)n(C)c(=O)n2C)cc1
72 | 210 | CNC(=O)NS(=O)(=O)c1cc(CCNC(=O)C=Cc2ccc(OC)cc2OC)ccc1OC
73 | 112 | COc1ccc2[nH]c(C(=O)c3cc4ccccc4[nH]3)cc2c1
74 | 159 | CC#CCOc1ccc(S(=O)C(C(=O)NO)c2cccc3ccccc23)cc1 (stereo not drawn)
75 | 129 to 130 | CCOC(=O)c1cc2c(O)c(C(=O)OCC)n(C)c2nc1C(=O)OCC
76 | 157 to 162 | O=S(=O)(c1ccc(OCCO)cc1)C(Br)(Br)Br
77 | 147 to 149 | CCCc1nn(CC)c2c(=O)n(CCOc3cccc(OC(C)(C)C(=O)O)c3)c(C)nc12
78 | 134 to 137 | CC(C)(Oc1ccc(OCc2ccccc2)cc1)C(=O)O
79 | 135 to 137 | COc1ccccc1N1CCN(CCn2c(O)nc3sc4c(c3c2=O)CCN(C(C)=O)C4)CC1
80 | 136 to 138 | CCOP(=O)(OCC)c1cc2c(c(C)c1-c1c(OC)ccc3ccccc13)COC2
81 | 178 to 180 | Cc1c(C)c2ccc(OCC(O)CN3CCC(NC(=O)c4ccccc4)CC3)cc2oc1=O (stereo not drawn)
82 | 118 | COc1ccc2c(c1)c(C)c(CCCO)n2Cc1ccc(Cl)cc1
83 | 308 to 310 | COc1ccc2c(C3=C(c4cn(C)c5cc([N+](=O)[O-])ccc45)C(=O)NC3=O)cn(C)c2c1

Row | melting point [°C] | SMILES
84 | 131 to 133 | CC(=O)Oc1ccc2c(c1)CC1(C)Cc3ccccc3C1=CC2C (stereo not drawn)
85 | 135 to 136 | CC(C)N(C(=O)n1oc(=O)n(C)c1=O)c1ccc(F)cc1
86 | 126 to 127 | COC1=C(c2ccccc2)C(CCC(=O)O)OC1=O (stereo not drawn)
87 | 131 to 132 | COc1ccc(C(C#N)Nc2ccc(S(C)(=O)=O)cc2)cc1 (stereo not drawn)
88 | 275 to 284 | COC(=O)c1ccc(-c2nc3cc(C(=O)O)ccc3o2)cc1
89 | 97 to 100 | CCC(C)C(Cl)C(=O)Oc1ccc(C(=O)O)cc1 (stereo not drawn)
90 | 129 to 132 | COc1cc(NC(=O)N(Cc2ccccc2)C2CCCCC2)c(OC(C)=O)c(C(C)(C)C)c1
91 | 109 to 111 | COc1ccc(-c2c(C(=O)O)n(Cc3ccc4c(c3)OCO4)c3ccccc23)cc1
92 | 189 | COc1ccc(-c2cc3cc(Br)ccc3o2)cc1
93 | 58 to 65 | COc1ccc(S(=O)(=O)C(CCCCCc2ccc(Cl)cc2)C(=O)O)cc1 (stereo not drawn)
94 | 119 to 120 | CSc1nccc(-c2cc(C)ccc2NC(=O)C(C)(C)C)n1
95 | 62 to 64 | CCOC(=O)c1cccn2cc(C)nc12
96 | 186 | CCN(CC)CCOc1ccc(Nc2ncc3c(n2)N(C)C(=O)N(C)C3)cc1
97 | 201 to 202 | COC(=O)c1ccc(-c2cc(-c3ccccc3)on2)cc1
98 | 190 to 191 | COc1cc2c(c3c1OC(C)(C)C3)C(c1cccc(N(CC(N)=O)S(C)(=O)=O)c1)=NC(C)(C)C2

Source: a melting point compilation (Tetko et al.; mined from patent text by program, amines drawn as free bases though some values may be those of a salt)
